From US6534447B1, “Herbicidal pyridine compounds” (BASF Aktiengesellschaft, priority 1999, dated 2003)

Tests used:
Type in all cases: in vivo
[1] = test system: Triticum aestivum (TRZAW, winter wheat); experiment: Pre-emergence herbicidal evaluation (crop); conditions: 3 weeks after treatment
Procedure, shortened: (§1)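 Soil-mixed seed sown in pots; spray immediately post-planting, aq. acetone, ~0.025–0.4 kg/ha; greenhouse, routine watering; visual score from 3 wk after treatment.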

Zea mays (ZEAMX, maize) = experiment: Pre-emergence herbicidal evaluation (crop); conditions: 3 weeks after treatment
Procedure, shortened: as §1

[2] = test system: Glycine max (GLXMA, soyabeans); experiment: Pre-emergence herbicidal evaluation (crop); conditions: 3 weeks after treatment
Procedure, shortened: as §1

eight weed species = experiment: Pre-emergence herbicidal evaluation, overall weed control
Text: The pre-emergence herbicidal activity of the compounds of the present invention is exemplified by the following test in which the seeds of a variety of monocotyledonous and dicotyledonous plants are seperately mixed with potting soil and planted on top of approximately one inch of soil in separate post. After planting, the pots are sprayed with the selected aqueous acetone solution. containing test compound in sufficient quantity to provide the equivalent of about 0.025 to 0.4 kg per hectare of test compound per pot. The treated pots are then placed on greenhouse benches, watered and cared for in accordance with conventional greenhouse procedures. From 3 weeks after treatment, the tests are terminated and each pot is examined and rated according to the rating system set forth below.
Thus, there is evidence for the good potential of the compounds of the invention for excellent cross spectrum control of both grasses and broadleaf weeds in key crops.

[3] = test system: Alopecurus myosuroides (ALOMY, black grass); experiment: Post-emergence herbicidal evaluation; conditions: 3 weeks after treatment
Procedure, shortened: (§2)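 Injury is scored on a 0–9 scale, where 0 means growth as in untreated controls and 9 means death, from 3 weeks after spraying. Test compound, in acetone diluted with water, is applied at dosages equivalent to about 0.025 to 0.4 kg per hectare per pot, with plants then maintained in the greenhouse.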

[4] = test system: Galium aparine (GALAP, cleaver); experiment: Post-emergence herbicidal evaluation; conditions: 3 weeks after treatment
Procedure, shortened: as §2

[5] = test system: Echinochloa grus galli (ECHCG, barnyard grass); experiment: Post-emergence herbicidal evaluation; conditions: 3 weeks after treatment
Procedure, shortened: as §2

[6] = test system: Matricaria inodora (MATIN, mayweed); experiment: Post-emergence herbicidal evaluation; conditions: 3 weeks after treatment
Procedure, shortened: as §2

[7] = test system: Ipomoea hederacea (IPOHE, morning glory); experiment: Post-emergence herbicidal evaluation; conditions: 3 weeks after treatment
Procedure, shortened: as §2

[8] = test system: Stellaria media (STEME, chickweed); experiment: Post-emergence herbicidal evaluation; conditions: 3 weeks after treatment
Procedure, shortened: as §2

[9] = test system: Setaria viridis (SETVI, green foxtail); experiment: Post-emergence herbicidal evaluation; conditions: 3 weeks after treatment
Procedure, shortened: as §2

[10] = test system: Dolium multiflorum (LOLMU, ryegrass); experiment: Post-emergence herbicidal evaluation; conditions: rate 0.100 kg/ha, 3 weeks after treatment
Procedure, shortened: as §2

[11] = test system: Abutilon theophrasti (ABUTH, velvetleaf); experiment: Post-emergence herbicidal evaluation; conditions: 3 weeks after treatment
Procedure, shortened: as §2

[12] = test system: Alopecurus myosuroides (ALOMY, black grass); experiment: Pre-emergence herbicidal evaluation; conditions: 3 weeks after treatment
Procedure, shortened: as §1

[13] = test system: Galium aparine (GALAP, cleaver); experiment: Pre-emergence herbicidal evaluation; conditions: 3 weeks after treatment
Procedure, shortened: as §1

[14] = test system: Echinochloa grus galli (ECHCG, barnyard grass); experiment: Pre-emergence herbicidal evaluation; conditions: 3 weeks after treatment
Procedure, shortened: as §1

[15] = test system: Matricaria inodora (MATIN, mayweed); experiment: Pre-emergence herbicidal evaluation; conditions: 3 weeks after treatment
Procedure, shortened: as §1

[16] = test system: Ipomoea hederacea (IPOHE, morning glory); experiment: Pre-emergence herbicidal evaluation; conditions: 3 weeks after treatment
Procedure, shortened: as §1

[17] = test system: Stellaria media (STEME, chickweed); experiment: Pre-emergence herbicidal evaluation; conditions: 3 weeks after treatment
Procedure, shortened: as §1

[18] = test system: Setaria viridis (SETVI, green foxtail); experiment: Pre-emergence herbicidal evaluation; conditions: 3 weeks after treatment
Procedure, shortened: as §1

[19] = test system: Abutilon theophrasti (ABUTH, velvetleaf); experiment: Pre-emergence herbicidal evaluation; conditions: 3 weeks after treatment
Procedure, shortened: as §1

In the case of `Cc1cc(OCCCSC(F)(F)F)nc(Oc2cc(C(F)(F)F)nn2C)c1` [Example 4], the TRZAW rating ([1]; rate 0.025 kg/ha) is reported as 0 (0 - No effect), the TRZAW rating ([1]; rate 0.100 kg/ha) is reported as 0 (0 - No effect) and the TRZAW rating ([1]; rate 0.400 kg/ha) is reported as 2 (2 - Slight effect). The ZEAMX rating (Zea mays (ZEAMX, maize); rate 0.025 kg/ha) was 2 (2 - Slight effect), the ZEAMX rating (Zea mays (ZEAMX, maize); rate 0.100 kg/ha) was 2 (2 - Slight effect) and the ZEAMX rating (Zea mays (ZEAMX, maize); rate 0.400 kg/ha) was 4 (4 - Injury). For the same compound, the GLXMA rating ([2]; rate 0.025 kg/ha) was 1 (1 - Trace effect), the GLXMA rating ([2]; rate 0.100 kg/ha) was 2 (2 - Slight effect) and the GLXMA rating ([2]; rate 0.400 kg/ha) was 3 (3 - Moderate effect). For the same compound, the “weed control (in words)” value (eight weed species; crop selective dose of 0.1 kg/ha) was “high levels of activity”, the “weed control (in words)” value (eight weed species; wheat selective dose of 0.4 kg/ha) was “complete weed control” and the ALOMY rating ([3]; rate 0.025 kg/ha) was 6 (6 - Herbicidal effect). The ALOMY rating ([3]; rate 0.100 kg/ha) was 8 (8 - Approaching complete kill), the ALOMY rating ([3]; rate 0.400 kg/ha) was 8 (8 - Approaching complete kill) and the GALAP rating ([4]; rate 0.025 kg/ha) was 7 (7 - Good herbicidal effect). The GALAP rating ([4]; rate 0.100 kg/ha) was 8 (8 - Approaching complete kill), the GALAP rating ([4]; rate 0.400 kg/ha) was 9 (9 - Complete kill) and the ECHCG rating ([5]; rate 0.025 kg/ha) was 8 (8 - Approaching complete kill). For the same compound, the ECHCG rating ([5]; rate 0.100 kg/ha) was 8 (8 - Approaching complete kill), the ECHCG rating ([5]; rate 0.400 kg/ha) was 9 (9 - Complete kill) and the MATIN rating ([6]; rate 0.025 kg/ha) was 4 (4 - Injury). The MATIN rating ([6]; rate 0.100 kg/ha) was 7 (7 - Good herbicidal effect), the MATIN rating ([6]; rate 0.400 kg/ha) was 8 (8 - Approaching complete kill) and the IPOHE rating ([7]; rate 0.025 kg/ha) was 5 (5 - Definite injury). For the same compound, the IPOHE rating ([7]; rate 0.100 kg/ha) was 7 (7 - Good herbicidal effect), the IPOHE rating ([7]; rate 0.400 kg/ha) was 9 (9 - Complete kill) and the STEME rating ([8]; rate 0.025 kg/ha) was 5 (5 - Definite injury). For the same compound, the STEME rating ([8]; rate 0.100 kg/ha) was 5 (5 - Definite injury), the STEME rating ([8]; rate 0.400 kg/ha) was 8 (8 - Approaching complete kill) and the SETVI rating ([9]; rate 0.025 kg/ha) was 5 (5 - Definite injury). The SETVI rating ([9]; rate 0.100 kg/ha) was 7 (7 - Good herbicidal effect), the SETVI rating ([9]; rate 0.400 kg/ha) was 9 (9 - Complete kill) and the LOLMU rating [10] was 8 (8 - Approaching complete kill). For the same compound, the ABUTH rating ([11]; rate 0.025 kg/ha) was 5 (5 - Definite injury), the ABUTH rating ([11]; rate 0.100 kg/ha) was 7 (7 - Good herbicidal effect) and the ABUTH rating ([11]; rate 0.400 kg/ha) was 8 (8 - Approaching complete kill). The ALOMY rating ([12]; rate 0.025 kg/ha) was 5 (5 - Definite injury), the ALOMY rating ([12]; rate 0.100 kg/ha) was 8 (8 - Approaching complete kill) and the ALOMY rating ([12]; rate 0.400 kg/ha) was 8 (8 - Approaching complete kill). For the same compound, the GALAP rating ([13]; rate 0.025 kg/ha) was 4 (4 - Injury), the GALAP rating ([13]; rate 0.100 kg/ha) was 8 (8 - Approaching complete kill) and the GALAP rating ([13]; rate 0.400 kg/ha) was 8 (8 - Approaching complete kill). The ECHCG rating ([14]; rate 0.025 kg/ha) was 3 (3 - Moderate effect), the ECHCG rating ([14]; rate 0.100 kg/ha) was 8 (8 - Approaching complete kill) and the ECHCG rating ([14]; rate 0.400 kg/ha) was 9 (9 - Complete kill). The MATIN rating ([15]; rate 0.025 kg/ha) was 8 (8 - Approaching complete kill), the MATIN rating ([15]; rate 0.100 kg/ha) was 8 (8 - Approaching complete kill) and the MATIN rating ([15]; rate 0.400 kg/ha) was 8 (8 - Approaching complete kill). The IPOHE rating ([16]; rate 0.025 kg/ha) was 6 (6 - Herbicidal effect), the IPOHE rating ([16]; rate 0.100 kg/ha) was 9 (9 - Complete kill) and the IPOHE rating ([16]; rate 0.400 kg/ha) was 9 (9 - Complete kill). For the same compound, the STEME rating ([17]; rate 0.025 kg/ha) was 9 (9 - Complete kill), the STEME rating ([17]; rate 0.100 kg/ha) was 9 (9 - Complete kill) and the STEME rating ([17]; rate 0.400 kg/ha) was 9 (9 - Complete kill). For the same compound, the SETVI rating ([18]; rate 0.025 kg/ha) was 8 (8 - Approaching complete kill), the SETVI rating ([18]; rate 0.100 kg/ha) was 9 (9 - Complete kill) and the SETVI rating ([18]; rate 0.400 kg/ha) was 9 (9 - Complete kill). The ABUTH rating ([19]; rate 0.025 kg/ha) was 3 (3 - Moderate effect), the ABUTH rating ([19]; rate 0.100 kg/ha) was 7 (7 - Good herbicidal effect) and the ABUTH rating ([19]; rate 0.400 kg/ha) was 9 (9 - Complete kill).
